# Measured values as given in PubChem BioAssay AID248 (DTP/NCI, 2004).
# Where “and” joins values, the source holds several entries; their conditions need not be identical. Identical values can stand only once. Toxic doses and inconclusive results are not listed.
# Tested on: L1210 leukemia ip in BDF1 mice, survival T/C
# Test: NCI In Vivo Anticancer Drug Screen. Data for tumor model L1210 Leukemia (intraperitoneal) in B6D2F1 (BDF1) mice
# Conditions: endpoint: mean survival time, higher = longer survival
# Method in brief: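 Transplanted-tumor mice were given test agent; controls received vehicle only. Survival readings from the two groups were divided (treated over control).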
# [1] = dose: 100.0 mg/kg/injection, schedule: Q01DX001 (ip), vehicle: saline
# [2] = dose: 200.0 mg/kg/injection, schedule: Q01DX001 (ip), vehicle: saline
# [3] = dose: 400.0 mg/kg/injection, schedule: Q01DX001 (ip), vehicle: saline
# [4] = dose: 50.0 mg/kg/injection, schedule: Q01DX009 (ip), vehicle: saline
# [5] = dose: 100.0 mg/kg/injection, schedule: Q01DX009 (ip), vehicle: saline
# [6] = dose: 200.0 mg/kg/injection, schedule: Q01DX009 (ip), vehicle: saline
# [7] = dose: 100.0 mg/kg/injection, schedule: Q01DX009 (ip), vehicle: saline with Tween-80
# [8] = dose: 200.0 mg/kg/injection, schedule: Q01DX009 (ip), vehicle: saline with Tween-80
# [9] = dose: 100.0 mg/kg/injection, schedule: Q04DX002 (ip), vehicle: saline with Tween-80
# [10] = dose: 200.0 mg/kg/injection, schedule: Q04DX002 (ip), vehicle: saline with Tween-80
# [11] = dose: 400.0 mg/kg/injection, schedule: Q04DX002 (ip), vehicle: saline with Tween-80
# [12] = dose: 100.0 mg/kg/injection, schedule: Q01DX009 (ip), vehicle: Klucel (hydroxypropylcellulose) (HPC)
# [13] = dose: 200.0 mg/kg/injection, schedule: Q01DX009 (ip), vehicle: Klucel (hydroxypropylcellulose) (HPC)
# [14] = dose: 400.0 mg/kg/injection, schedule: Q01DX009 (ip), vehicle: Klucel (hydroxypropylcellulose) (HPC)
# [15] = dose: 100.0 mg/kg/injection, schedule: Q04DX003 (ip), vehicle: saline
# [16] = dose: 200.0 mg/kg/injection, schedule: Q04DX003 (ip), vehicle: saline
# [17] = dose: 400.0 mg/kg/injection, schedule: Q01DX009 (ip), vehicle: saline
# [18] = dose: 400.0 mg/kg/injection, schedule: Q04DX003 (ip), vehicle: saline
# [19] = dose: 100.0 mg/kg/injection, schedule: Q04DX003 (ip), vehicle: saline with Tween-80
# [20] = dose: 200.0 mg/kg/injection, schedule: Q04DX003 (ip), vehicle: saline with Tween-80
structure (smiles),measurement,setting,value
CC(=O)Nc1snc(C)c1[N+](=O)[O-],T/C,[1],107 % of control
same,T/C,[2],103 % of control
same,T/C,[3],103 % of control
O=C(O)CC(NC(=O)c1ccccc1)C(=O)O (stereo not given),T/C,[4],93 % of control
same,T/C,[5],89 % of control
same,T/C,[6],97 % of control
CCOC(=O)N1CCN(C(=O)OCC)CC1,T/C,"dose: 50.0 mg/kg/injection, schedule: Q01DX009 (ip), vehicle: saline with Tween-80",95 % of control
same,T/C,[7],95 % of control
same,T/C,[8],95 % of control
CCCCCCCCC1OC1CCCCCCCC(N)=O (stereo not given),T/C,[9],92 % of control
same,T/C,[10],88 % of control
same,T/C,[11],100 % of control
COc1cc(C2=N/C(=C\c3ccccc3O)C(=O)O2)cc(OC)c1OC,T/C,[9],96 % of control
same,T/C,[10],89 % of control
same,T/C,[11],89 % of control
COc1ccc(NC(=O)Nc2cccc(O)c2)c(OC)c1,T/C,[12],100 % of control
same,T/C,[13],96 % of control
same,T/C,[14],100 % of control
O=C1C(n2ccc(=O)[nH]c2=O)CCN1CCOCc1ccccc1 (stereo not given),T/C,[12],105 % of control
same,T/C,[13],105 % of control
same,T/C,[14],100 % of control
CC(C)C(/C=N/N=C(N)N)=N\N=C(N)N,T/C,"dose: 15.0 mg/kg/injection, schedule: Q01DX Z (ip), vehicle: methylcellulose (MC)",94 % of control
same,T/C,"dose: 30.0 mg/kg/injection, schedule: Q01DX Z (ip), vehicle: methylcellulose (MC)",105 % of control
same,T/C,"dose: 60.0 mg/kg/injection, schedule: Q01DX Z (ip), vehicle: methylcellulose (MC)",94 % of control
same,T/C,"dose: 120.0 mg/kg/injection, schedule: Q01DX Z (ip), vehicle: methylcellulose (MC)",96 % of control
Nc1ccccc1SC(CC(=O)c1ccccc1)c1ccc(Cl)cc1 (stereo not given),T/C,"dose: 100.0 mg/kg/injection, schedule: Q01DX005 (ip), vehicle: Klucel (hydroxypropylcellulose) (HPC)",91 % of control
same,T/C,"dose: 100.0 mg/kg/injection, schedule: Q04DX002 (ip), vehicle: Klucel (hydroxypropylcellulose) (HPC)",89 % of control
same,T/C,"dose: 200.0 mg/kg/injection, schedule: Q01DX005 (ip), vehicle: Klucel (hydroxypropylcellulose) (HPC)",97 % of control
same,T/C,"dose: 200.0 mg/kg/injection, schedule: Q04DX002 (ip), vehicle: Klucel (hydroxypropylcellulose) (HPC)",95 % of control
same,T/C,"dose: 400.0 mg/kg/injection, schedule: Q01DX005 (ip), vehicle: Klucel (hydroxypropylcellulose) (HPC)",97 % of control
same,T/C,"dose: 400.0 mg/kg/injection, schedule: Q04DX002 (ip), vehicle: Klucel (hydroxypropylcellulose) (HPC)",100 % of control
NCCCCS(=O)(=O)Nc1ccc(Nc2c3ccccc3nc3cc([N+](=O)[O-])ccc23)cc1,T/C,"dose: 2.1 mg/kg/injection, schedule: Q01DX009 (ip), vehicle: saline",117 % of control
same,T/C,"dose: 3.1 mg/kg/injection, schedule: Q01DX009 (ip), vehicle: saline",121 % of control
same,T/C,"dose: 16.0 mg/kg/injection, schedule: Q01DX009 (ip), vehicle: saline",123 % of control
same,T/C,"dose: 25.0 mg/kg/injection, schedule: Q01DX009 (ip), vehicle: saline",158 % of control
same,T/C,"dose: 25.0 mg/kg/injection, schedule: Q01DX009 (sc), vehicle: saline",111 % of control
same,T/C,[4],228 % of control
same,T/C,"dose: 50.0 mg/kg/injection, schedule: Q01DX009 (sc), vehicle: saline",118 % of control
same,T/C,[5],266 % of control
same,T/C,"dose: 100.0 mg/kg/injection, schedule: Q01DX009 (sc), vehicle: saline",175 % of control
same,T/C,"dose: 200.0 mg/kg/injection, schedule: Q01DX009 (sc), vehicle: saline",163 % of control
Cc1ccc(NC(=O)Nc2cccc(O)c2)c([N+](=O)[O-])c1,T/C,"dose: 50.0 mg/kg/injection, schedule: Q01DX009 (ip), vehicle: Klucel (hydroxypropylcellulose) (HPC)",98 % of control
same,T/C,[12],102 % of control
same,T/C,"dose: 100.0 mg/kg/injection, schedule: Q04DX003 (ip), vehicle: Klucel (hydroxypropylcellulose) (HPC)",103 % of control
same,T/C,[13],98 % of control
same,T/C,"dose: 200.0 mg/kg/injection, schedule: Q04DX003 (ip), vehicle: Klucel (hydroxypropylcellulose) (HPC)",106 % of control
same,T/C,"dose: 400.0 mg/kg/injection, schedule: Q04DX003 (ip), vehicle: Klucel (hydroxypropylcellulose) (HPC)",103 % of control
OC(/C=C/c1ccccc1)C(O)/C=C/c1ccccc1 (stereo not given),T/C,[7],102 % of control
same,T/C,[8],104 % of control
same,T/C,"dose: 400.0 mg/kg/injection, schedule: Q01DX009 (ip), vehicle: saline with Tween-80",111 % of control
COC(=O)C1=C2C(C(=O)OC)C(O)=C(C(=O)OC)C2C(C(=O)OC)C1=O (stereo not given),T/C,[1],97 % of control
same,T/C,[5],100 % of control
same,T/C,[15],107 % of control
same,T/C,[2],105 % of control
same,T/C,[6],97 % of control
same,T/C,[16],104 % of control
same,T/C,[3],103 % of control
same,T/C,[17],95 % of control
same,T/C,[18],104 % of control
CCCCCCCCNc1ccccc1,T/C,[19],95 % of control
same,T/C,[20],106 % of control
same,T/C,"dose: 400.0 mg/kg/injection, schedule: Q04DX003 (ip), vehicle: saline with Tween-80",117 % of control
O=C(O)CN1C(=O)OC(c2ccccc2)C1=O (stereo not given),T/C,[12],101 % of control
same,T/C,[13],97 % of control
same,T/C,[14],86 % of control
O=S(=O)(/C=C(/Br)c1ccccc1)c1ccccc1,T/C,[1],92 % of control
same,T/C,[2],97 % of control
same,T/C,[3],95 % of control
O=[N+]([O-])c1cccc(S(=O)(=O)OCC2CO2)c1 (stereo not given),T/C,[12],98 % of control
same,T/C,[13],104 % of control
CC(CS(=O)(=O)O)NC(CO)(CO)CO (stereo not given),T/C,[5],104 % of control
same,T/C,[15],100 % of control
same,T/C,[6],98 % of control
same,T/C,[16],100 % of control
same,T/C,[17],96 % of control
same,T/C,[18],100 % of control
CC(=O)CC(C)(C)N,T/C,[19],94 % of control
same,T/C,[20],86 % of control
Cc1nc(NNCc2ccccc2)n[nH]1,T/C,"dose: 37.5 mg/kg/injection, schedule: Q01DX001 (ip), vehicle: Klucel (hydroxypropylcellulose) (HPC)",106 % of control
same,T/C,"dose: 75.0 mg/kg/injection, schedule: Q01DX001 (ip), vehicle: Klucel (hydroxypropylcellulose) (HPC)",101 % of control
same,T/C,"dose: 150.0 mg/kg/injection, schedule: Q01DX001 (ip), vehicle: Klucel (hydroxypropylcellulose) (HPC)",110 % of control
Cc1cc(C)c(NC(=O)Nc2ccc(C(Cl)(Cl)Cl)cc2)c(C)c1,T/C,[12],95 % of control
same,T/C,[13],98 % of control
same,T/C,[14],94 % of control
CCCCC[n+]1ccc(C(N)=O)cc1,T/C,[15],105 % of control
same,T/C,[16],100 % of control
CCOC(OCC)C(=O)C(C#N)c1ccc(C#N)cc1 (stereo not given),T/C,"dose: 3.12 mg/kg/injection, schedule: Q01DX009 (ip), vehicle: DMSO",90 % of control
same,T/C,"dose: 6.25 mg/kg/injection, schedule: Q01DX009 (ip), vehicle: DMSO",88 % of control
same,T/C,"dose: 12.5 mg/kg/injection, schedule: Q01DX009 (ip), vehicle: DMSO",92 % of control and 88 % of control
COC(=O)CCC(C)C1CCC2C3CCC4CC(OC(=O)c5ccccc5)CCC4(C)C3CC(=O)C12C (stereo not given),T/C,"dose: 100.0 mg/kg/injection, schedule: Q01DX001 (sc), vehicle: steriod suspending solution",102 % of control
same,T/C,"dose: 100.0 mg/kg/injection, schedule: Q01DX009 (sc), vehicle: steriod suspending solution",93 % of control
same,T/C,"dose: 200.0 mg/kg/injection, schedule: Q01DX001 (sc), vehicle: steriod suspending solution",106 % of control
same,T/C,"dose: 200.0 mg/kg/injection, schedule: Q01DX009 (sc), vehicle: steriod suspending solution",98 % of control
same,T/C,"dose: 400.0 mg/kg/injection, schedule: Q01DX001 (sc), vehicle: steriod suspending solution",104 % of control
same,T/C,"dose: 400.0 mg/kg/injection, schedule: Q01DX009 (sc), vehicle: steriod suspending solution",99 % of control
O=C(N/N=C/c1ccc2c(c1)OCO2)C(O)(c1ccccc1)c1ccccc1,T/C,"dose: 100.0 mg/kg/injection, schedule: Q01DX001 (ip), vehicle: carboxymethylcellulose (CMC)",106 % of control
same,T/C,"dose: 200.0 mg/kg/injection, schedule: Q01DX001 (ip), vehicle: carboxymethylcellulose (CMC)",95 % of control
same,T/C,"dose: 400.0 mg/kg/injection, schedule: Q01DX001 (ip), vehicle: carboxymethylcellulose (CMC)",103 % of control
O=C(OC1CCC/C=C\CCCC1)c1ccc(Cl)cc1 (stereo not given),T/C,[2],104 % of control
same,T/C,[3],98 % of control
